Measurements reported in PMC7403315, “Cyclic peptide FXII inhibitor provides safe anticoagulation in a thrombosis model and in artificial lungs” (Nature Communications, 2020).
One block for each molecule: values may come before it. Starred links: 1 amine or outer side, 2 acyl side, 3 side chain; linkers in the order of their positions; H or OH if unused. Positions of bridges follow the written chain, without caps; N, C: chain ends. Non-standard residues stand in square brackets, D forms with d. Residues, ends and D or L forms follow the SMILES beside them. TATA = O=C(CC[*:1])N1CN(C(=O)CC[*:2])CN(C(=O)CC[*:3])C1; Phe(4-F) = N[C@@H](Cc1ccc(F)cc1)C(=O)O; β3hR = N=C(N)NCCC[C@H](N)CC(=O)O

Target: T1, Recombinant mouse FXII (Mus musculus, UniProt Q80YC5)
T1 sequence (Q80YC5 355-597 limits assumed): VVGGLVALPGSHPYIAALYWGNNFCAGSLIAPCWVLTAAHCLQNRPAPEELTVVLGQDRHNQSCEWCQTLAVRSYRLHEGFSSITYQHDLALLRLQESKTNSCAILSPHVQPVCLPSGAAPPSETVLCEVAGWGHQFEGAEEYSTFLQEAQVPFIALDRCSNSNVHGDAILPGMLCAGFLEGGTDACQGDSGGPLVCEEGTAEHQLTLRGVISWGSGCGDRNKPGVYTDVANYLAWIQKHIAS
T1 sequence (Q80YC5 20-354 limits assumed): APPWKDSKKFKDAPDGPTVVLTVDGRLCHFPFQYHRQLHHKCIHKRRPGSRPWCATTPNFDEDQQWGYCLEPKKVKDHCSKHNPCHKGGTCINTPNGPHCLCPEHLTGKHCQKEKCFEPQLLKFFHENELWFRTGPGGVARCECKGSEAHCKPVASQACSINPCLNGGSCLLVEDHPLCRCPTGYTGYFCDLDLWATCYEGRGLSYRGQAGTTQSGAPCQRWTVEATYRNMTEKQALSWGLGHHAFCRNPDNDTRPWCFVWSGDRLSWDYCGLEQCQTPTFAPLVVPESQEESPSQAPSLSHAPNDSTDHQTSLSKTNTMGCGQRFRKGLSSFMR
Test: Inhibition of recombinant FXIIa (rFXIIa)
Assay type: biochemical
Conditions: individual plates

- remaining activity at 0.000390625 µM (Recombinant mouse FXII, peptide 0.390625 nM, read-out: Residual activity (%)): 97.5%
- remaining activity at 0.00078125 µM (Recombinant mouse FXII, peptide 0.78125 nM, read-out: Residual activity (%)): 99%
- remaining activity at 0.0015625 µM (Recombinant mouse FXII, peptide 1.5625 nM, read-out: Residual activity (%)): 99.1%
- remaining activity at 0.003125 µM (Recombinant mouse FXII, peptide 3.125 nM, read-out: Residual activity (%)): 96.3%
- remaining activity at 0.00625 µM (Recombinant mouse FXII, peptide 6.25 nM, read-out: Residual activity (%)): 94%
- remaining activity at 0.0125 µM (Recombinant mouse FXII, peptide 12.5 nM, read-out: Residual activity (%)): 90.3%
- remaining activity at […] (Recombinant mouse FXII, peptide 25 nM, read-out: Residual activity (%)): 81.9%
- remaining activity at 0.05 µM (Recombinant mouse FXII, peptide 50 nM, read-out: Residual activity (%)): 69.1%
- remaining activity at 0.1 µM (Recombinant mouse FXII, peptide 100 nM, read-out: Residual activity (%)): 53%
- remaining activity at 0.2 µM (Recombinant mouse FXII, peptide 200 nM, read-out: Residual activity (%)): 35.9%
- remaining activity at 0.4 µM (Recombinant mouse FXII, peptide 400 nM, read-out: Residual activity (%)): 22.6%
Compound: CC(C)C[C@@H]1NC(=O)[C@H](CCC(N)=O)NC(=O)[C@H](CCCNC(=N)N)NC(=O)[C@@H]2CSCCC(=O)N3CN(CN(C3)C(=O)CCSC[C@H](NC(=O)[C@@H](N)CCCNC(=N)N)C(=O)N[C@@H](Cc3ccccc3)C(=O)N[C@@H](CCCNC(=N)N)C(=O)N[C@@H](CC(C)C)C(=O)N3CCC[C@H]3C(=O)N2)C(=O)CCSC[C@@H](C(=O)N[C@@H](CCCNC(=N)N)C(N)=O)NC(=O)[C@H](CCCNC(=N)N)NC1=O [FXII618]

Compound: CC(C)C[C@@H]1NC(=O)[C@H](CCC(N)=O)NC(=O)[C@H](Cc2c[nH]cn2)NC(=O)[C@@H]2CSCCC(=O)N3CN(CN(C3)C(=O)CCSC[C@H](NC(=O)[C@@H](CO)NC(=O)[C@H](N)CCCNC(=N)N)C(=O)N[C@@H](Cc3ccc(F)cc3)C(=O)N[C@@H](CCCNC(=N)N)C(=O)N[C@@H](CC(C)C)C(=O)N3CCC[C@H]3C(=O)N2)C(=O)CCSC[C@@H](C(N)=O)NC(=O)C[C@H](CCCNC(=N)N)NC1=O [FXII900] (H-[dR][dS]C[Phe(4-F)]RLPCHQL[β3hR]C-NH2; linker 3-8-13 via TATA)
- remaining activity at 30.52 pM (read-out: Residual activity (%), Recombinant mouse FXII, peptide 0.030518 nM): 94.5%
- remaining activity at 61.04 pM (read-out: Residual activity (%), Recombinant mouse FXII, peptide 0.061035 nM): 95%
- remaining activity at 0.00012207 µM (read-out: Residual activity (%), Recombinant mouse FXII, peptide 0.12207 nM): 85.5%
- remaining activity at 0.000244141 µM (read-out: Residual activity (%), Recombinant mouse FXII, peptide 0.244141 nM): 77.6%
- remaining activity at 0.000488281 µM (read-out: Residual activity (%), Recombinant mouse FXII, peptide 0.488281 nM): 61.6%
- remaining activity at 0.000976563 µM (read-out: Residual activity (%), Recombinant mouse FXII, peptide 0.976563 nM): 37.8%
- remaining activity at 0.00195312 µM (read-out: Residual activity (%), Recombinant mouse FXII, peptide 1.95312 nM): 15.3%
- remaining activity at 0.0078125 µM (read-out: Residual activity (%), Recombinant mouse FXII, peptide 7.8125 nM): 0.768%
- remaining activity at 0.015625 µM (read-out: Residual activity (%), Recombinant mouse FXII, peptide 15.625 nM): 0%
- remaining activity at 0.03125 µM (read-out: Residual activity (%), Recombinant mouse FXII, peptide 31.25 nM): 0%
